Laboratory results published in US11999759B2, “Boronic acid derivatives and therapeutic uses thereof” (Qpex Biopharma, Inc., priority 2016, dated 2024).

What was measured:
[1] = Stability of compound 13 prodrugs in human serum; format: in vitro ADME; conditions: 37° C., prodrug 50.0 μg/mL
Method: The rate of hydrolysis for several prodrugs of 13 was evaluated in vitro by measuring their stability in human serum and human liver microsomes. All serum stability experiments were conducted by aliquoting 10 μL of test compound at 500 μg/mL (10× final concentration) in 95:5 water:acetonitrile v/v into 1.5 mL Eppendorf tubes. […] The tubes were then warmed to 37° C. in a water bath along with human serum (Bioreclamations) in a separate tube. Serum esterase activity for each lot of serum used was established by assaying an unrelated ester prodrug as a control. To initiate the reaction, 90 μL of serum was added to tubes for all timepoints using a repeating-tip pipette, thereby bringing the final concentration of test compound to 50 μg/mL and the final concentration of acetonitrile to 0.5% v/v. At each timepoint, the reaction was halted and serum proteins precipitated through the addition of an equal volume of cold acetonitrile containing 25 μg/mL diclofenac as an internal standard. […] Sample analysis for serum stability experiments was conducted using an Agilent 1100 binary pump HPLC equipped with a diode array detector set to monitor absorbance at 286 nm (8 nm bandwidth). […] The samples were analyzed together with appropriate blanks in order to ensure specificity. […] The rate of activation was determined by monitoring the concentration of test compound as follows. The peak area for the analyte was divided by the peak area for the internal standard to give an area ratio. The area ratio for each timepoint was divided by the area ratio for timepoint 0 to give the percent remaining at each timepoint. The natural logarithm of the percent remaining versus time was plotted using Microsoft Excel and fitted to a linear trendline.

[2] = Stability of compound 13 prodrugs in human liver microsomes (HLM); format: in vitro ADME; conditions: 0.500 mg/mL human liver microsomes, no cofactors, prodrug 1.00 μM; for half-life at 1 μM: pH 7.4, read-out: Estimated half-life (minutes) (rounded to nearest integer value)
Method: In the meantime, a 20.0 mg/mL solution of human liver microsomes (XenoTech, LLC) was diluted to 1.00 mg/mL (2× final concentration). Esterase activity for each lot of microsomes used was established by assaying an unrelated ester prodrug as a control. Both the Eppendorfs for each timepoint and the diluted liver microsomes were then warmed to 37° C. in a water bath. No cofactors (e.g. NADPH) were added to ensure that only hydrolytic reactions as opposed to reactions mediated by other cofactor-dependent enzymes (e.g. CYP450 enzymes) would take place. To initiate the reaction, 50 μL of diluted human liver microsomes was added to tubes for all timepoints using a repeating-tip pipette, thereby bringing the final concentration of test compound to 1.00 μM and the final concentration of human liver microsomes to 0.500 mg/mL. At each timepoint, the reaction was halted and proteins precipitated through the addition of 200 μL of 10:45:45 water:methanol:acetonitrile v/v/v containing an unrelated ester prodrug at 250 ng/mL as an internal standard. […] Sample analysis for microsome stability experiments was conducted using a 20.0 μL injection on a LEAP PAL autosampler with Agilent 1100 binary pump HPLC coupled to an AB Sciex 3200 QTrap mass spectrometer. […] Detection was in positive mode; source parameters and parent-daughter ion selection criteria were chosen as needed for each compound to achieve an appropriate limit of detection and signal-to-noise ratio. The samples were analyzed together with appropriate blanks in order to ensure specificity. The rate of hydrolysis for each prodrug was determined by monitoring the concentration of test compound as follows. The peak area for the analyte was divided by the peak area for the internal standard to give an area ratio. The area ratio for each of the two replicates at each timepoint was divided by the area ratio for timepoint 0 to give the percent remaining at each timepoint. The natural logarithm of the percent remaining versus time for all replicates was plotted using Microsoft Excel and fitted to a linear trendline.

[3] = biological target: CTX-M-14 (Escherichia coli, UniProt Q9L5C7); experiment: Inhibition of nitrocefin cleavage by purified CTX-M-14; format: biochemical; conditions: nitrocefin reporter substrate; 10 min preincubation at room temperature; read-out: Ki (CTX-M-14, NCF)
Method: (§1) Ki values of inhibition of purified class A, C and D enzymes were determined spectrophotometrically using nitrocefin as reporter substrate. Purified enzymes were mixed with various concentrations of inhibitors in reaction buffer and incubated for 10 min at room temperature. Nitrocefin was added and substrate cleavage profiles were recorded at 490 nm every 10 sec for 10 min.

[4] = biological target: SHV-12 (Klebsiella pneumoniae, UniProt P0AD64, E235K/G234S/L31Q); experiment: Inhibition of nitrocefin cleavage by purified SHV-12; format: biochemical; conditions: nitrocefin reporter substrate; 10 min preincubation at room temperature; read-out: Ki (SHV-12, NCF)
Method: as §1

[5] = biological target: KPC-2 (Klebsiella pneumoniae, UniProt Q9F663); experiment: Inhibition of nitrocefin cleavage by purified KPC-2; format: biochemical; conditions: nitrocefin reporter substrate; 10 min preincubation at room temperature; read-out: Ki (KPC-2, NCF)
Method: as §1, with “min. These experiments confirmed that the described compounds are inhibitors with a broad-spectrum of activity towards various β-lactamases.” for “min.”

[6] = biological target: P99 (Enterobacter cloacae, UniProt P05364); experiment: biochemical; conditions: nitrocefin reporter substrate; 10 min preincubation at room temperature; read-out: Ki (P99, NCF)
Method: as §1

[7] = biological target: Pa-AmpC (Pseudomonas aeruginosa, UniProt P24735); experiment: biochemical; conditions: nitrocefin reporter substrate; 10 min preincubation at room temperature; read-out: Ki (Pa-AmpC, NCF)
Method: as §1

[8] = biological target: OXA-48 (Klebsiella pneumoniae, UniProt Q6XEC0); experiment: Inhibition of nitrocefin cleavage by purified OXA-48; format: biochemical; conditions: nitrocefin reporter substrate; 10 min preincubation at room temperature; read-out: Ki (OXA-48, NCF)
Method: as §1, with “min. These experiments confirmed that the described compounds are inhibitors with a broad-spectrum of activity towards various β-lactamases.” for “min.”

[9] = biological target: OXA-23 (Acinetobacter baumannii, UniProt Q9L4P2); experiment: Inhibition of nitrocefin cleavage by purified OXA-23; format: biochemical; conditions: nitrocefin reporter substrate; 10 min preincubation at room temperature; read-out: Ki (OXA-23, NCF)
Method: as §1, with “min. These experiments confirmed that the described compounds are inhibitors with a broad-spectrum of activity towards various β-lactamases.” for “min.”

[10] = biological target: VIM-1 (Pseudomonas aeruginosa, UniProt A0A0F7KYQ8); experiment: Inhibition of nitrocefin cleavage by purified VIM-1; format: biochemical; conditions: nitrocefin reporter substrate; 10 min preincubation at room temperature; read-out: Ki (VIM-1, NCF)
[11] = biological target: NDM-1 (Klebsiella pneumoniae, UniProt C7C422); experiment: Inhibition of imipenem cleavage by purified NDM-1; format: biochemical; conditions: imipenem reporter substrate; 37° C.; read-out: Ki (NDM-1, IMI)
Method: Purified enzymes were mixed with various concentrations of inhibitors in reaction buffer and incubated for 10 min at room temperature. Imipenem was added and substrate cleavage profiles were recorded at 294 nm every 30 seconds for 30 minutes at 37° C.

[12] = biological target: IMP-1 (Serratia marcescens, UniProt P52699); experiment: Inhibition of imipenem cleavage by purified IMP-1; format: biochemical; conditions: imipenem reporter substrate; 37° C.; read-out: Ki (IMP-1, IMI)
Method: Ki values of inhibition of purified class B enzymes NDM-1 and IMP-1 were determined spectrophotometrically using imipenem as reporter substrate. Purified enzymes were mixed with various concentrations of inhibitors in reaction buffer and incubated for 10 min at room temperature. Imipenem was added and substrate cleavage profiles were recorded at 294 nm every 30 seconds for 30 minutes at 37° C. These experiments further confirmed that the described compounds have the ability to inhibit carbapenemase activity of metallo-beta-lactamases.

Sequence of IMP-1 (P52699 19-246, looked up, species assumed): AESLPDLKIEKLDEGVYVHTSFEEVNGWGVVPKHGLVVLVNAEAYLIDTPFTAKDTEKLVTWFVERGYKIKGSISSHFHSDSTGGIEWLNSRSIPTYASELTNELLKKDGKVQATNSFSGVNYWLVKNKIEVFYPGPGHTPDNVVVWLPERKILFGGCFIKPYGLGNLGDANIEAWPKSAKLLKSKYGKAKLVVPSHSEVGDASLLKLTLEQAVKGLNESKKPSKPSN
Sequence of CTX-M-14 (Q9L5C7 29-291, species assumed): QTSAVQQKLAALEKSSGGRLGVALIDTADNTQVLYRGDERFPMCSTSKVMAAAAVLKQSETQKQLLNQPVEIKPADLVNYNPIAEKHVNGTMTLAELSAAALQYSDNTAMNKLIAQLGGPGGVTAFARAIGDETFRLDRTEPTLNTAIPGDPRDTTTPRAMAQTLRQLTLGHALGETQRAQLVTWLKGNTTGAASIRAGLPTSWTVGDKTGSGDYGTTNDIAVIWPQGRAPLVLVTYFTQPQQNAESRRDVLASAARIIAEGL
Sequence of OXA-23 (Q9L4P2 18-273): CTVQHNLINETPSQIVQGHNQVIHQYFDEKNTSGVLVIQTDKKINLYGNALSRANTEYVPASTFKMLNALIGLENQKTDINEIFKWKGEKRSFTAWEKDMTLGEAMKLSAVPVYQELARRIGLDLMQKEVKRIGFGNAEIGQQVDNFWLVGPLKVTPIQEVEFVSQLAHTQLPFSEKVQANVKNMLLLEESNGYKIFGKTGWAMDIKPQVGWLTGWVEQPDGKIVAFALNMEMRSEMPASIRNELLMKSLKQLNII
Sequence of KPC-2 (Q9F663 25-293 limits assumed): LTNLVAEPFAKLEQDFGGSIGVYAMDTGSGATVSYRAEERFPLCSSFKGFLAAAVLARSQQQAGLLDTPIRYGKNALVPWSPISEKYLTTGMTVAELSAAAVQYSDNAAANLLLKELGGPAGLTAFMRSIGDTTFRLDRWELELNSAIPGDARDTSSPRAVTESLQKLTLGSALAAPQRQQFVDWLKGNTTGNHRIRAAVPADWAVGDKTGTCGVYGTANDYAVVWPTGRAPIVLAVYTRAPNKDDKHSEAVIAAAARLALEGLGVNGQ
Sequence of Pa-AmpC (P24735 27-397): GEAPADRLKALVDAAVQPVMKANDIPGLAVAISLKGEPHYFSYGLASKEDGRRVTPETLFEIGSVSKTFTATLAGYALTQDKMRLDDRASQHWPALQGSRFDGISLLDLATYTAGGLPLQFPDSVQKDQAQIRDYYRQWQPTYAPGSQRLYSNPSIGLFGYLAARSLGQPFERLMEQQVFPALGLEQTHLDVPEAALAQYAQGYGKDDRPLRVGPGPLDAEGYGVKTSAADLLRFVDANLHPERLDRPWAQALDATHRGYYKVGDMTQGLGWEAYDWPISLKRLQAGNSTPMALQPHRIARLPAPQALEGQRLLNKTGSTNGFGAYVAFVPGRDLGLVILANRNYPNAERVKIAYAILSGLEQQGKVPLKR
Sequence of NDM-1 (C7C422 29-270, looked up, species assumed): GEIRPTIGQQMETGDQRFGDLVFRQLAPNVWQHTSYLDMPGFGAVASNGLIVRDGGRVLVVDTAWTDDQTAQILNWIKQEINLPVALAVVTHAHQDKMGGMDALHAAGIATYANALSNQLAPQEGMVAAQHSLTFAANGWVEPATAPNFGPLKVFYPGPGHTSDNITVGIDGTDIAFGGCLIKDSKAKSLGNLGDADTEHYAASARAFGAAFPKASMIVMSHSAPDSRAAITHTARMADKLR
Sequence of SHV-12 (P0AD64 22-286 L31Q/G234S/E235K): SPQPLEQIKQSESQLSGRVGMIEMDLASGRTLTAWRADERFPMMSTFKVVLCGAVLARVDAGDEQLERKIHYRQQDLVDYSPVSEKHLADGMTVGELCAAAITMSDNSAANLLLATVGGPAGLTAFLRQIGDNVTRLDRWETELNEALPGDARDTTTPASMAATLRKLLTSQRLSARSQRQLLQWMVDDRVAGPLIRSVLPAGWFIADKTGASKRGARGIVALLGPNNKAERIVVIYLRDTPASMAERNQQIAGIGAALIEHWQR
Sequence of P99 (P05364 21-381): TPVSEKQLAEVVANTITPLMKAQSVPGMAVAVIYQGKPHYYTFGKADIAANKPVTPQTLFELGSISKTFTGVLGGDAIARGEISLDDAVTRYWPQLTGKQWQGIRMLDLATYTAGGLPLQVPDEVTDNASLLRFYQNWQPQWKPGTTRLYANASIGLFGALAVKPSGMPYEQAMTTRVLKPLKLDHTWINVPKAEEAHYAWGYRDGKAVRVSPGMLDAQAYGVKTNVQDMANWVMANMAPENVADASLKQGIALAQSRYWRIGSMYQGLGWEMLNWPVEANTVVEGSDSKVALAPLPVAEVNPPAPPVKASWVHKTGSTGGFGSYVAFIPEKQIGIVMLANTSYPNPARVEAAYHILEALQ
Sequence of OXA-48 (Q6XEC0 23-265, looked up): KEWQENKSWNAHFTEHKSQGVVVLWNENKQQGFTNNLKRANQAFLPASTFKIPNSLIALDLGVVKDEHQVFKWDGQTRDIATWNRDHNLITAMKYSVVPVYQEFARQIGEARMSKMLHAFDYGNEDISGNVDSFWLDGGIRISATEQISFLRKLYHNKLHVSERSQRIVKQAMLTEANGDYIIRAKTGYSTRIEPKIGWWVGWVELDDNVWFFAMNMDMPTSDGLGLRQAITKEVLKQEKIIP

## O=C(OCOC(=O)C1CCOCC1)c1c(F)ccc2c1OB(O)[C@@H]1C[C@H]21 [Compound 39, Tetrahydropyran-4-carbonyloxymethyl (1aR,7bS)-5-fluoro-2-hydroxy-1a,7b-dihydro-1H-cyclopropa[c][1,2]benzoxaborinine-4-carboxylate]
[1]
  % of initial area ratio at t = 0 min: 100%
  % of initial area ratio at t = 5 min: 69.3%
  % of initial area ratio at t = 10 min: 59.4%
  % of initial area ratio at t = 30 min: 41.1%

## COCC(=O)OCOC(=O)c1c(F)ccc2c1OB(O)[C@@H]1C[C@H]21 [Compound 43, (2-Methoxyacetyl)oxymethyl (1aR,7bS)-5-fluoro-2-hydroxy-1a,7b-dihydro-1H-cyclopropa[c][1,2]benzoxaborinine-4-carboxylate]
[1]
  % of initial area ratio at t = 0 min: 100%
  % of initial area ratio at t = 5 min: 58.6%
  % of initial area ratio at t = 10 min: 34.5%
  % of initial area ratio at t = 30 min: 2.9%
[2]
  Average % of initial area ratio at t = 0 min: 100%
  Average % of initial area ratio at t = 5 min: 64.4%
  Average % of initial area ratio at t = 10 min: 44.6%
  Average % of initial area ratio at t = 30 min: 0.6%
  half-life at 1 μM: 4 min

## CC(=O)OCC(=O)OCOC(=O)c1c(F)ccc2c1OB(O)[C@@H]1C[C@H]21 [Compound 42, (2-Acetoxyacetyl)oxymethyl (1aR,7bS)-5-fluoro-2-hydroxy-1a,7b-dihydro-1H-cyclopropa[c][1,2]benzoxaborinine-4-carboxylate]
[1]
  % of initial area ratio at t = 0 min: 100%
  % of initial area ratio at t = 5 min: 29.1%
  % of initial area ratio at t = 10 min: 8.1%
  % of initial area ratio at t = 30 min: 0%
[2]
  Average % of initial area ratio at t = 0 min: 100%
  Average % of initial area ratio at t = 5 min: 27.1%
  Average % of initial area ratio at t = 10 min: 10.3%
  Average % of initial area ratio at t = 30 min: 0.4%
  half-life at 1 μM: 4 min

## O=C(O)c1cccc2c1OB(O)C1CC21 (stereo not shown) [Compound 10, 2-Hydroxy-1a,7b-dihydro-1H-cyclopropa[c][1,2]benzoxaborinine-4-carboxylic acid]
[3]
  Ki: < 100 nM
[4]
  Ki: < 100 nM
[5]
  Ki: < 100 nM
[6]
  Ki: < 100 nM
[7]
  Ki: < 100 nM
[8]
  Ki: < 100 nM
[9]
  Ki: < 100 nM
[10]
  Ki: < 100 nM
[11]
  Ki: < 100 nM
[12]
  Ki: 100 to 1000 nM

## COc1ccc2c(c1C(=O)O)OB(O)C1C2[C@H]2C=C[C@@H]1C2 (stereo partly drawn) [Compound 6, (7R,10R)-6-hydroxy-3-methoxy-6a,7,10,10a-tetrahydro-6H-7,10-methanodibenzo[c,e][1,2]oxaborinine-4-carboxylic acid]
[3]
  Ki: > 1000 nM
[4]
  Ki: 100 to 1000 nM
[5]
  Ki: < 100 nM
[6]
  Ki: < 100 nM
[7]
  Ki: < 100 nM
[8]
  Ki: < 100 nM
[9]
  Ki: 100 to 1000 nM
[10]
  Ki: 100 to 1000 nM
[11]
  Ki: > 1000 nM
[12]
  Ki: > 1000 nM

## Cc1oc(=O)oc1COC(=O)c1c(F)ccc2c1OB(O)[C@@H]1C[C@H]21 [Compound 33, (5-Methyl-2-oxo-1,3-dioxol-4-yl)methyl (1aR,7bS)-5-fluoro-2-hydroxy-1a,7b-dihydro-1H-cyclopropa[c][1,2]benzoxaborinine-4-carboxylate]
[1]
  % of initial area ratio at t = 0 min: 100%
  % of initial area ratio at t = 5 min: 48.4%
  % of initial area ratio at t = 10 min: 15.4%
  % of initial area ratio at t = 30 min: 0%

## COc1ccc2c(c1C(=O)O)OB(O)C1C2[C@H]2CC[C@@H]1C2 (stereo partly drawn) [Compound 7, (7R,10S)-6-hydroxy-3-methoxy-6a,7,8,9,10,10a-hexahydro-6H-7,10-methanodibenzo[c,e][1,2]oxaborinine-4-carboxylic acid]
[3]
  Ki: < 100 nM
[4]
  Ki: 100 to 1000 nM
[5]
  Ki: < 100 nM
[6]
  Ki: < 100 nM
[7]
  Ki: < 100 nM
[8]
  Ki: < 100 nM
[9]
  Ki: < 100 nM
[10]
  Ki: < 100 nM
[11]
  Ki: < 100 nM
[12]
  Ki: < 100 nM

## O=C(OCOC(=O)c1c(F)ccc2c1OB(O)[C@@H]1C[C@H]21)OC1COC1 [Compound 32, Oxetan-3-yloxycarbonyloxymethyl (1aR,7bS)-5-fluoro-2-hydroxy-1a,7b-dihydro-1H-cyclopropa[c][1,2]benzoxaborinine-4-carboxylate]
[1]
  % of initial area ratio at t = 0 min: 100%
  % of initial area ratio at t = 5 min: 86.8%
  % of initial area ratio at t = 10 min: 77.2%
  % of initial area ratio at t = 30 min: 38.7%

## COc1ccc2c(c1C(=O)O)OB(O)CC21CC1 [Compound 11, 2-hydroxy-7-methoxy-spiro[3H-1,2-benzoxaborinine-4,1′-cyclopropane]-8-carboxylic acid]
[3]
  Ki: < 100 nM
[4]
  Ki: < 100 nM
[5]
  Ki: < 100 nM
[6]
  Ki: < 100 nM
[7]
  Ki: < 100 nM
[8]
  Ki: < 100 nM
[9]
  Ki: < 100 nM
[10]
  Ki: 100 to 1000 nM
[11]
  Ki: < 100 nM
[12]
  Ki: 100 to 1000 nM
